# Measured values published in a melting point compilation (Tetko et al.; mined from patent text by program, amines drawn as free bases though some values may be those of a salt).
row,SMILES,melting point [°C]
1,CN(c1ccncc1[N+](=O)[O-])n1cccc1C=O,101 to 107
2,OC(c1ccccc1)(c1cccc(C(F)(F)F)c1)N1CCCCC1 (stereo not given),97 to 100
3,O=[N+]([O-])c1nc(CC(O)C2CO2)c[nH]1 (stereo not given),90 to 92
4,CCCCCS(=O)(=O)NC(=O)C=Cc1ccc(OCCCC#N)cc1Oc1ncc(C(F)(F)F)cc1Cl,165 to 166
5,CN1N(c2ccccc2)C(=O)C(F)(F)C1(C)O (stereo not given),132 to 134
6,O=C(C=Cc1ccco1)c1cnc2sc3c(n12)CCCCC3,161 to 162
7,CCOC(=O)n1nc(N(C)C)c2c(Cl)cccc21,60 to 62
8,Fc1ccc(Sc2c[nH]c3ncccc23)cc1,183 to 184
9,COC(=O)CCc1cc2nc(Cl)ccc2n1S(=O)(=O)c1cccc2cccnc12,120
10,COc1ccc(CNC(=O)c2cn3c(=O)n(Cc4ccc(Cl)c(Cl)c4)c(=O)cc3s2)cc1,206 to 207
11,CS(=O)(=O)c1ccc(C(CC2CCCC2)C(=O)O)cc1Cl (stereo not given),124 to 126
12,CCOC(=O)CCCNc1cccc(/C=C/c2nc3ccccc3s2)c1,68 to 69
13,C=CCOc1ccccc1-c1nc2nc(SC)ncc2c(=O)[nH]1,205 to 206
14,Cc1ccc(CN2CCc3ccc(C(=O)CCC(=O)N4CCC(c5ccc(Cl)cc5)CC4)cc3CC2)cc1,137 to 138
15,CCC(C)(C)c1ccc(OCCCC(=O)Nc2ccc(Cl)c(NC(=O)C(C(=O)c3ccc(OC)cc3)N3C(=O)NC(=C(C)C)C3=O)c2)c(C(C)(C)CC)c1 (stereo not given),140 to 141
16,CCNc1nc(C(F)(F)F)nc(NCC)c1[N+](=O)[O-],60 to 65
17,OCCN1C2CCC1CC(c1ccc3ccccc3c1)C2 (stereo not given),84 to 88
18,CC1(C)CC(=O)c2c(NCc3ccccc3)sc(-c3cc[nH]n3)c2C1,204 to 206
19,Cc1nc2c3c(ccn2c1C)C(O)C(O)C(c1ccccc1)N3 (stereo not given),199 to 200
20,Cc1ncn(Cc2ccc(N)cc2C(F)(F)F)c1C,185 to 186

row,SMILES,melting point [°C]
1,Cc1cnc(-c2ccc(C(F)(F)F)cc2)nc1Cl,110 to 112
2,Cc1cn([C@@H]2C[C@H](O)[C@@H](O)[C@H]2O)c(=O)[nH]c1=O (racemic),201 to 202
3,CN(C)Nc1cc(F)ccc1[N+](=O)[O-],67 to 71
4,O=C(O)Cc1nc(-c2ccc(Cl)cc2)oc1-c1ccsc1,218 to 219
5,O=C1NC(=O)C(c2ccccc2Cl)C1SC1=NCCS1 (stereo not given),195 to 200
6,CC(Nc1nc(NN)nc(Cl)c1-c1c(F)cccc1Cl)C(F)(F)F (stereo not given),120 to 122
7,CCCc1c(OCCCCCc2ccccc2CCC(=O)O)ccc2c1OCCC2=O,94 to 96
8,CCOc1ccc(Nc2c([N+](=O)[O-])cc([N+](=O)[O-])c(Cl)c2C(=O)O)cc1,202 to 206
9,CC(=O)c1cc(CC2CO2)c(OCCCCC#N)cc1O (stereo not given),86 to 87
10,O=c1[nH]c(=O)c2ccncc2[nH]1,365
11,COc1ccc(S(=O)(=O)Nc2ncnc(Cl)c2Cc2ccccc2OC)cc1,149 to 151
12,COC1CCN2C(=O)c3cccc([N+](=O)[O-])c3C2C1 (stereo not given),132 to 134
13,COc1ccc2c(c1)CCc1c-2n(-c2ccccc2)c2ncccc2c1=O,234 to 238
14,COC1CCC(OS(C)(=O)=O)C(CN=[N+]=[N-])O1 (stereo not given),54 to 56
15,CCCCCCC(C)(C)c1ccc(C2=CCCC3(C2)OCCO3)c(O)c1,97 to 98
16,S=C(NN=Cc1cccc(-c2ccccc2Br)n1)NN1CCCC1,157 to 159
17,N#Cc1ccc(OCc2cccnc2)cc1F,105 to 110
18,CCCn1c(=O)c2c(nc(/C=C/c3ccc(OCOC)c(OCOC)c3)n2C)n(CCC)c1=O,172 to 173
19,CC(=O)SCCC(=O)N1CCC=C1C(=O)O,89 to 91
20,CC(C)(C)CNS(=O)(=O)c1cccc(NC(=O)c2cnn3c(C(F)(F)F)cc(-c4ccc(C(F)(F)F)cc4)nc23)c1,231
